Tests used:
[1] = test system: Staphylococcus aureus 6538; assay: High resolution minimum inhibitory concentration (HRMIC) test vs S. aureus 6538; assay type: cell-based; conditions: M9GY medium, 96-well microtiter plate, 10^6 CFU/mL, 30° C. for 24 h; first well with no growth
Experimental: (§1) Several compounds of this invention were tested for biological activity in vitro against Escherichia coli 8739 and Staphylococcus aureus 6538 described below. The following test procedures were employed.
(§2) MIC Determination: The lowest concentration of test compound required to inhibit Escherichia coli 8739 and Staphylococcus aureus 6538 was determined by a high resolution minimum inhibitory concentration (HRMIC) test. Varying amounts of the test compounds were added to minimal salts glucose medium (Maniatis, T., Fritsch, E. F., Sambrook, J. 1982 Molecular Cloning, page 68) supplemented with 0.1% yeast extract (M9GY) in a 96-well microtiter plate. […] serial dilutions were performed on a Biomek 2000 Workstation to obtain a range of closely spaced concentrations of test compound as shown in FIG. 1. A cell suspension of inoculum, adjusted to provide 10^6 CFU/mL in each well, was added to the microtiter plate. Microtiter plates were incubated at 30° C. for 24 h and then were checked for the presence or absence of microbial growth in each well.

[2] = test system: Escherichia coli 8739; assay: High resolution minimum inhibitory concentration (HRMIC) test vs E. coli 8739; assay type: cell-based; conditions: M9GY medium, 96-well microtiter plate, 10^6 CFU/mL, 30° C. for 24 h; first well with no growth
Experimental: as §1, §2

Compound | MIC vs S. aureus 6538 Gram-positive [1] [ppm AI] | MIC vs E. coli 8739 Gram-negative [2] [ppm AI] | melting point [°C]
CCCCCCCCCCCC(=O)OC(OC(=O)N1CCN(c2cc3c(cc2F)c(=O)c(C(=O)O)cn3CC)CC1)C(=O)OC(C)C (centres unmarked) [Compound 8-3, 7-(4-[(Isopropoxycarbonyl)(dodecanoyloxy)methoxycarbonyl]-1-piperazinyl)-1-ethyl-6-fluoro-1,4-dihydro-4-oxo-3-quinolinecarboxylic acid] | 4.5 | 40 | 105.5 to 109.2
CCCCOC(=O)C(OC(=O)C(C)C)OC(=O)N1CCN(c2cc3c(cc2F)c(=O)c(C(=O)O)cn3CC)CC1 (centres unmarked) [Compound 8-1, 7-(4-[(Butoxycarbonyl)(2-methylpropanoyloxy)methoxycarbonyl]-1-piperazinyl)-1-ethyl-6-fluoro-1,4-dihydro-4-oxo-3-quinolinecarboxylic acid] | 0.06 | 2.5 | 151.5 to 160
CCn1cc(C(=O)O)c(=O)c2cc(F)c(N3CCN(C(=O)OC(OC(=O)c4ccccc4)C(=O)OC(C)C)CC3)cc21 (centres unmarked) [Compound 8-2, 7-(4-[(Isopropoxycarbonyl)(benzoyloxy)methoxycarbonyl]-1-piperazinyl)-1-ethyl-6-fluoro-1,4-dihydro-4-oxo-3-quinolinecarboxylic acid] | 0.45 | 3 | 135 to 143

Next, values leading:

MIC vs S. aureus 6538 Gram-positive [1] [ppm AI] | MIC vs E. coli 8739 Gram-negative [2] [ppm AI] | melting point [°C] | Compound
0.9 | 0.2 | – | CCn1cc(C(=O)O)c(=O)c2cc(F)c(N3CCNCC3)cc21 [Norfloxacin, reference compound]
0.7 | >1000 | 88 to 96.5 | CCn1cc(C(=O)O)c(=O)c2cc(F)c(N3CCN(C(=O)OC(OC(=O)C(C)c4ccc(CC(C)C)cc4)C(=O)OC(C)C)CC3)cc21 (centres unmarked) [Compound 8-4, 7-(4-[(2-[4-(2-Methylpropyl)phenyl]propanoyloxy)(isopropoxycarbonyl)methoxy-carbonyl]-1-piperazinyl)-1-ethyl-6-fluoro-1,4-dihydro-4-oxo-3-quinolinecarboxylic acid]

From patent publication US20040254182A1, “Enhanced propertied pharmaceuticals” (priority 2000, published 2004)
